Measurements taken from PubChem BioAssay (NCI).
“And” between values parts separate entries of the source, which are not always exact repeats. Equal entries are not always repeated.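 Briefly, cells in 96-well plates were exposed to five compound concentrations for 48 h, and endpoints were estimated by linear interpolation. Abbreviation: GI50, concentration required for 50% inhibition of growth. TGI is the concentration that stops growth completely.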

What follows are compounds tested on A549 NSCLC (assay: DTP human tumour cell line panel, 48 h).

Compared with `Cc1ccc(-n2c3nc(=O)[nH]c(=O)c-3cc3cc([N+](=O)[O-])ccc32)cc1`, `CCCOc1cc2ccccc2cc1C(=O)Nc1nc(N)c2c(ccc3nccc32)[nH]1` is 450-fold lower in GI50: 44.6 µM for the first, 0.0993 µM for the second.

Going from `COc1cc(/C(C#N)=C/c2nc3c(N4CCOCC4)nc(Cl)nc3n2C)cc(OC)c1OC` to `COc1ccc(CCN=C2NC(=O)/C(=C/c3ccc4ncccc4c3)S2)cc1`, the GI50 rises from less than 0.01 µM to greater than 25 µM.

First: Cc1nnc(NC(=O)c2nc(S(=O)(=O)Cc3ccc(F)cc3)ncc2Cl)s1
Second: Nc1c(C(=O)Nc2cccc(C(F)(F)F)c2)sc2nc3c(cc12)CCCCC3
The GI50 of the first is 8.4-fold higher: 18.8 µM for the first, 2.25 µM for the second.

Going from `Cn1ccc2c3c(Oc4ccc(NC(N)=O)cc4)ccnc3ccc21` to `CCCCCCCCCCCCC(O)c1ccc(C#CCCCCCCCCCO)o1` (stereo not given), the GI50 falls from greater than 100 µM to 16.9 µM.

First: Cc1ccc(-n2c3nc(=O)[nH]c(=O)c-3cc3cc([N+](=O)[O-])ccc32)cc1
Second: CCCOc1cc2ccccc2cc1C(=O)Nc1nc(N)c2c(ccc3nccc32)[nH]1
The TGI of the first is higher: greater than 100 µM for the first, 1.86 µM for the second.

`O=C1NC(=NC(CO)Cc2ccccc2)S/C1=C\c1ccc2ncccc2c1` (stereo not given) and `COc1ccc(CCN=C2NC(=O)/C(=C/c3ccc4ncccc4c3)S2)cc1` cannot be ordered by TGI: greater than 25 µM for the first, greater than 25 µM for the second.

`COc1cc(/C(C#N)=C/c2nc3c(N4CCOCC4)nc(Cl)nc3n2C)cc(OC)c1OC` and `CC1(C)OC1COc1c2occc2cc2ccc(=O)oc12` (stereo not given) cannot be ordered by TGI: greater than 45.5 µM for the first, greater than 100 µM for the second.

First: Cc1nnc(NC(=O)c2nc(S(=O)(=O)Cc3ccc(F)cc3)ncc2Cl)s1
Second: Nc1c(C(=O)Nc2cccc(C(F)(F)F)c2)sc2nc3c(cc12)CCCCC3
The TGI of the first is 3.2-fold higher: 35.3 µM for the first, 11 µM for the second.

Compared with `Cn1ccc2c3c(Oc4ccc(NC(N)=O)cc4)ccnc3ccc21`, `CCCCCCCCCCCCC(O)c1ccc(C#CCCCCCCCCCO)o1` (stereo not given) is lower in TGI: greater than 100 µM for the first, 32.9 µM for the second.

With `O=C1NC(=NC(CO)Cc2ccccc2)S/C1=C\c1ccc2ncccc2c1` (stereo not given) the GI50 was 16.4 µM and 2.96 µM.

Each compound was assayed on 786-0 renal (assay: DTP human tumour cell line panel, 48 h).

Compared with `CC(=O)CC(OC(C)=O)C1=CCC2C(CC1C)OC(=O)C2C` (stereo not given), `C[C@]12CCC3c4ccc(O)cc4CCC3C1CC[C@@]2(O)CNC(=O)/C=C/c1ccc(O)c(O)c1` (stereo not given in full) is lower in TGI: greater than 100 µM for the first, 24.9 µM for the second.

Compared with `O=C(/C(=C/c1ccc([N+](=O)[O-])cc1)SCc1ccccc1)c1ccc(Cl)cc1`, `O=C(Oc1ccc(Cl)cc1)c1ccccc1Nc1ccnc(C(F)(F)F)c1` is 2.9-fold higher in TGI: 3.41 µM for the first, 9.75 µM for the second.

Compared with `CCCCCCCCCCCCCCCC[N+](C)(C)Cc1ccccc1`, `CCCCCCCCCCn1cc[n+](C)c1` is 6.2-fold higher in TGI: 2.93 µM for the first, 18.1 µM for the second.

Compared with `O=C(O)c1ccc2c(c1C(=O)O)C(=O)OC2(c1ccc(O)cc1)c1ccc(O)cc1`, `CN(C)c1cc(NN=C(c2ccc(O)cc2)c2ccc(O)cc2)c([N+](=O)[O-])cc1[N+](=O)[O-]` is lower in TGI: greater than 100 µM for the first, 25.1 µM for the second.

First: CCN(Cc1ccc(F)cc1)c1cc(Cl)c(CO)c(Cl)c1
Second: CC1SC(c2ccc(F)cc2)N(NC(=O)C(O)c2ccccc2)C1=O (stereo not given)
The TGI of the first is lower: 32.5 µM for the first, greater than 100 µM for the second.

Compared with `COc1ccc(/C=N/NC(=O)c2cccc3cc[nH]c23)cc1O`, `O=C(CCCSc1nc(-c2ccccc2)cc(-c2ccccc2)n1)NO` is lower in TGI: greater than 100 µM for the first, 4.34 µM for the second.

`N#Cc1c[nH]n2c(N=Nc3ccc(Cl)cc3)c(O)nc12` and `CCOC(=O)C1=C(C)N(c2ccc(F)cc2F)[C@]2(C#N)C(O)=C(Cl)C(Cl)=C(O)[C@]12C#N` cannot be ordered by TGI: greater than 100 µM for the first, greater than 100 µM for the second.

`O=S(=O)(c1ccccc1)N1CCN(S(=O)(=O)c2ccccc2)c2ccccc21` and `Cc1csc(-c2nnc(Nc3ccc(Oc4ncccc4-c4ccnc(N)n4)cc3)c3ccccc23)c1` cannot be ordered by TGI: greater than 100 µM for the first, greater than 100 µM for the second.

`COc1cc(-c2ccc3cc(OC)c(OC)c(OC)c3c2)cc(OC)c1OC` and `COc1cc(C2CC(C)(O)Oc3cc4c(cc32)OCO4)cc(OC)c1OC` (stereo not given) cannot be ordered by TGI: greater than 100 µM for the first, greater than 100 µM for the second.

In the case of `COCCOc1ccc(-c2nc3ccc(-c4nc5ccc(N6CCN(C)CC6)cc5[nH]4)cc3[nH]2)cc1`, the TGI is reported as 3.81 µM.

First: O=C(/C(=C/c1ccc([N+](=O)[O-])cc1)SCc1ccccc1)c1ccc(Cl)cc1
Second: O=C(Oc1ccc(Cl)cc1)c1ccccc1Nc1ccnc(C(F)(F)F)c1
The GI50 of the first is 1.5-fold lower: 1.77 µM for the first, 2.71 µM for the second.

First: CCCCCCCCCCCCCCCC[N+](C)(C)Cc1ccccc1
Second: CCCCCCCCCCn1cc[n+](C)c1
The GI50 of the first is 1.6-fold lower: 1.52 µM for the first, 2.39 µM for the second.

Going from `C[C@]12CCC3c4ccc(O)cc4CCC3C1CC[C@@]2(O)CNC(=O)/C=C/c1ccc(O)c(O)c1` (stereo not given in full) to `COc1ccc(/C=N/NC(=O)c2cccc3cc[nH]c23)cc1O`, the GI50 falls from 11.4 µM to 5.13 µM (2.2-fold).

First: CCN(Cc1ccc(F)cc1)c1cc(Cl)c(CO)c(Cl)c1
Second: CC1SC(c2ccc(F)cc2)N(NC(=O)C(O)c2ccccc2)C1=O (stereo not given)
The GI50 of the first is lower: 16 µM for the first, greater than 100 µM for the second.

First: N#Cc1c[nH]n2c(N=Nc3ccc(Cl)cc3)c(O)nc12
Second: CCOC(=O)C1=C(C)N(c2ccc(F)cc2F)[C@]2(C#N)C(O)=C(Cl)C(Cl)=C(O)[C@]12C#N
The GI50 of the first is lower: 51.6 µM for the first, greater than 100 µM for the second.

Going from `CN(C)c1cc(NN=C(c2ccc(O)cc2)c2ccc(O)cc2)c([N+](=O)[O-])cc1[N+](=O)[O-]` to `Cc1csc(-c2nnc(Nc3ccc(Oc4ncccc4-c4ccnc(N)n4)cc3)c3ccccc23)c1`, the GI50 rises from 10.9 µM to greater than 100 µM.

Going from `COc1cc(-c2ccc3cc(OC)c(OC)c(OC)c3c2)cc(OC)c1OC` to `COCCOc1ccc(-c2nc3ccc(-c4nc5ccc(N6CCN(C)CC6)cc5[nH]4)cc3[nH]2)cc1`, the GI50 falls from 20.9 µM to 1.64 µM (13-fold).

With `O=C(CCCSc1nc(-c2ccccc2)cc(-c2ccccc2)n1)NO` the GI50 was 0.585 µM.

In the case of `CC1(COc2ccc3c(c2)ncn3-c2ccc3cccc(N4CCC(N)CC4)c3n2)COC1`, the GI50 is reported as 1.8 µM and 1.75 µM.

For `CC1(COc2ccc3c(c2)ncn3-c2ccc3cccc(N4CCC(N)CC4)c3n2)COC1`, the TGI was 4.63 µM and 3.85 µM.
